# Assay results reported in patent publication US9139543B2, “Thiazole compounds and uses thereof” (Institute of Pharmacology and Toxicology Academy of …, priority 2012, dated 2015).
# Test system: myocardial cells
# Experiment: Activity of preventing cardiomyocyte apoptosis induced by TM (MTT cell survival)
# Type: cell-based, Neonatal Wistar rats
# Details: Cardiomyocyte, primary neonatal rat myocardial cells, compound 30 min before TM 0.5 μg/ml, 48 h, read-out: Protection effects against cardiomyocyte apoptosis induced by TM, EC50
# Method: Neonatal Wistar rats newborn within 24 h, not confined to female or male (provided by the Center of Laboratory Animals, Academy of Military Medical Science of the PLA, animal certificate No.: SCXK-( ? ) 2007-004). High-sugar DMEM culture medium, trypsinase, and type II collagenase purchased from Gibco Company; fetal bovine serum (FBS) purchased from Beijing Yuanhengshengma Biological Technology Institute; 5-bromo-2-deoxyuridine (5-Brdu), tunicamycin (TM) purchased from Sigma Company; thiazolyl blue (MTT), dimethyl sulfoxide (DMSO) which is the product of Amresco; other chemical agents were all analytical pure and made in China. Universal Microplate ReaderEL800 type of ELIASA was a product of BIO-TEK Company of US.
# neonatal Wistar rats newborn within 24 h were used, skin of abdomen was sterilized with iodine and alcohol. Tissue of ventricular apex was taken out with aseptic operation, cut into pieces with 1 mm^3 size, added with suitable amount of 0.125% pancretin and 0.1% collagenase II (final concentration was respectively 0.1% and 0.02%), mechanical shaking in 37° C. water-bath, 10 min each time, digested repeatedly until the tissue pieces were completely digested. The prepared myocardial cell suspension was inoculated in a 75 cm^2 culture flask. Non-myocardial cells were removed by differential adhesion method. The myocardial cell density was adjusted with DMEM culture medium containing 10% FBS, inoculated to a 96-well plate in an amount of 10^4/ml, placed in 5% CO2 incubator at 37° C. for 24 h for primary culture. Half medium was replaced after 24 h, a culture medium containing 0.1% 5-Brdu (5-bromo-2-deoxyuridine) was replenished to inhibit the growth of non-myocardial cells. The medium was replaced once per 48 h for primary culture.
# Measurement of compound activity: myocardial cells were cultured for 4 days, respectively treated with compound in different concentrations (0.3 μM, 1 μM, 3 μM) for 30 min, then added with TM to final concentration of 0.5 μg/ml (TM group with final concentration of 0.5 μg/ml and solvent control group (DMSO) were set at the same time), and placed in 37° C., 5% CO2 incubator and cultured for 48 h, then each well was added with 10 μl of MTT (5 mg/ml) and continuously incubated for 4 h, finally each well was added with 100 μL of 10% SDS, incubated at 37° C., 5% CO2 for 24 h, so that MTT crystal was completely dissolved. ELISA was used to measure light absorbance of each well under 550 nm wavelength, in which TM and the compound of the present invention were formulated with DMSO. The formula is: cell survival rate (%)=OD value of administration group/average OD value of solvent control well×100%. The results were expressed in x±SD, and EC50 values (Table 1) were calculated with software, so that the effect of compound of the present invention preventing cardiomyocyte apoptosis induced by TM was determined.
row,Structure (SMILES),EC50
1,"COc1ccc(-c2csc(NC(NC(=O)/C=C/c3ccccc3)C(Cl)(Cl)Cl)n2)cc1 (stereo not shown) [Example 3, (2E)-3-(2-phenyl)-N-[1-(4-methoxyphenyl-2-thiazolyl)-2,2,2-trichloroethyl]-2-acrylamide]",61 µM
2,COc1ccc(-c2nc(NC(NC(=O)/C=C/c3ccccc3)C(Cl)(Cl)Cl)sc2-c2ccccc2)cc1 (stereo not shown) [Example 1],100 µM
3,O=C(/C=C/c1ccccc1)NC(Nc1nc(-c2ccccc2)c(-c2ccccc2)s1)C(Cl)(Cl)Cl (stereo not shown) [Example 2],47 µM
4,"O=C(/C=C/c1ccccc1)NC(Nc1nc(-c2ccc(F)cc2F)cs1)C(Cl)(Cl)Cl (stereo not shown) [Example 4, (2E)-3-(2-phenyl)-N-[1-(2,4-difluorophenyl-2-thiazolyl)-2,2,2-trichloroethyl]-2-acrylamide]",0.8 µM
5,"O=C(/C=C/c1ccccc1)NC(Nc1nc(-c2ccc(Cl)cc2)cs1)C(Cl)(Cl)Cl (stereo not shown) [Example 5, (2E)-3-(2-phenyl)-N-[1-(4-chlorophenyl-2-thiazolyl)-2,2,2-trichloroethyl]-2-acrylamide]",0.3 µM
6,O=C(/C=C/c1ccccc1)NC(Nc1nc(-c2ccccc2)cs1)C(Cl)(Cl)Cl (stereo not shown) [Example 6],30 µM

# Same assay, conditions: primary neonatal rat myocardial cells, TM 0.5 μg/ml
row,Structure (SMILES),Protection effects against cardiomyocyte apoptosis induced by TM (in words)
1,"O=C(/C=C/c1ccccc1)NC(Nc1nc(-c2ccc(Cl)cc2)cs1)C(Cl)(Cl)Cl (stereo not shown) [Example 5, (2E)-3-(2-phenyl)-N-[1-(4-chlorophenyl-2-thiazolyl)-2,2,2-trichloroethyl]-2-acrylamide]",good protection effects
